Assay results reported in PubChem BioAssay AID2060501 (Molecular Pharmacology Branch, DTP, NCI, 2025).

Tested on: 282377-053-R-J1-PDC complex spheroids, viability
Experiment: Anticancer human tumor 282377-053-R-J1-PDC patient-derived colon adenocarcinoma cell line growth inhibition [GQUAD]
Conditions: for IC50: curve of first compound; for viability, T/C: stronger effect = lower value
In short: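 Viability of tumor cells grown as complex spheroids with endothelial and stromal cells, exposed to drug combinations. Top concentration at or near clinical Cmax (else 10 microM), diluted in half-log increments.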

[1] = second compound 0.0316 µM, first compound 0.0316 µM
[2] = second compound 0.0316 µM, first compound 0.1 µM
[3] = second compound 0.0316 µM, first compound 0.316 µM
[4] = second compound 0.0316 µM, first compound 1 µM
[5] = second compound 0.0316 µM, first compound 3.16 µM
[6] = second compound 0.0316 µM, first compound 10 µM
[7] = second compound 0.1 µM, first compound 0.0316 µM
[8] = second compound 0.1 µM, first compound 0.1 µM
[9] = second compound 0.1 µM, first compound 0.316 µM
[10] = second compound 0.1 µM, first compound 1 µM
[11] = second compound 0.1 µM, first compound 3.16 µM
[12] = second compound 0.1 µM, first compound 10 µM
[13] = second compound 0.316 µM, first compound 0.0316 µM
[14] = second compound 0.316 µM, first compound 0.1 µM
[15] = second compound 0.316 µM, first compound 0.316 µM
[16] = second compound 0.316 µM, first compound 1 µM
[17] = second compound 0.316 µM, first compound 3.16 µM
[18] = second compound 0.316 µM, first compound 10 µM
[19] = second compound 1 µM, first compound 0.0316 µM
[20] = second compound 1 µM, first compound 0.1 µM
[21] = second compound 1 µM, first compound 0.316 µM
[22] = second compound 1 µM, first compound 1 µM
[23] = second compound 1 µM, first compound 3.16 µM
[24] = second compound 1 µM, first compound 10 µM
[25] = second compound 3.16 µM, first compound 0.0316 µM
[26] = second compound 3.16 µM, first compound 0.1 µM
[27] = second compound 3.16 µM, first compound 0.316 µM
[28] = second compound 3.16 µM, first compound 1 µM
[29] = second compound 3.16 µM, first compound 3.16 µM
[30] = second compound 3.16 µM, first compound 10 µM
[31] = second compound 10 µM, first compound 0.0316 µM
[32] = second compound 10 µM, first compound 0.1 µM
[33] = second compound 10 µM, first compound 0.316 µM
[34] = second compound 10 µM, first compound 1 µM
[35] = second compound 10 µM, first compound 3.16 µM
[36] = second compound 10 µM, first compound 10 µM
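Further: spheroids exposed to compounds for 7 days before readout.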
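Wherever viability, T/C is given: percent of vehicle DMSO control viability with 100% = untreated-like growth.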

C=CCn1c(=O)c2cnc(Nc3ccc(N4CCN(C)CC4)cc3)nc2n1-c1cccc(C(C)(C)O)n1 + CN(C)c1ccc(Nc2c3ccc(NC(=O)CCN4CCCC4)cc3nc3cc(NC(=O)CCN4CCCC4)ccc23)cc1
IC50 (second compound 0.0316 µM): 1910 nM
IC50 (second compound 0.1 µM): 1980 nM
IC50 (second compound 0.316 µM): 2040 nM
IC50 (second compound 1 µM): 1860 nM
IC50 (second compound 3.16 µM): 1800 nM
IC50 (second compound 10 µM): 2320 nM
viability, T/C [1]: 94.2%
viability, T/C [2]: 99.9%
viability, T/C [3]: 83.3%
viability, T/C [4]: 75.2%
viability, T/C [5]: 30.8%
viability, T/C [6]: 16.7%
viability, T/C [7]: 108%
viability, T/C [8]: 95.3%
viability, T/C [9]: 82.7%
viability, T/C [10]: 73.3%
viability, T/C [11]: 33.9%
viability, T/C [12]: 15.1%
viability, T/C [13]: 105%
viability, T/C [14]: 84.8%
viability, T/C [15]: 74.5%
viability, T/C [16]: 90.1%
viability, T/C [17]: 26.5%
viability, T/C [18]: 16.1%
viability, T/C [19]: 85.2%
viability, T/C [20]: 90.9%
viability, T/C [21]: 94.2%
viability, T/C [22]: 76.4%
viability, T/C [23]: 27.5%
viability, T/C [24]: 16.7%
viability, T/C [25]: 92.8%
viability, T/C [26]: 82.5%
viability, T/C [27]: 92.8%
viability, T/C [28]: 68.5%
viability, T/C [29]: 31.8%
viability, T/C [30]: 16.1%
viability, T/C [31]: 86.7%
viability, T/C [32]: 78.3%
viability, T/C [33]: 104%
viability, T/C [34]: 78.4%
viability, T/C [35]: 39.1%
viability, T/C [36]: 15.3%

CC(C)(O)C1CCC(Nc2ccc3ncc(-c4cccc(C(F)(F)F)c4)n3n2)CC1 (stereo unspecified) + CN(C)c1ccc(Nc2c3ccc(NC(=O)CCN4CCCC4)cc3nc3cc(NC(=O)CCN4CCCC4)ccc23)cc1
IC50 (second compound 0.0316 µM): 1800 nM
IC50 (second compound 0.1 µM): 2150 nM
IC50 (second compound 0.316 µM): 2000 nM
IC50 (second compound 1 µM): 1750 nM
IC50 (second compound 3.16 µM): 1650 nM
IC50 (second compound 10 µM): 1430 nM
viability, T/C [1]: 121%
viability, T/C [2]: 100%
viability, T/C [3]: 74%
viability, T/C [4]: 76.4%
viability, T/C [5]: 21%
viability, T/C [6]: 29%
viability, T/C [7]: 123%
viability, T/C [8]: 85%
viability, T/C [9]: 76.7%
viability, T/C [10]: 87.4%
viability, T/C [11]: 22.7%
viability, T/C [12]: 39.8%
viability, T/C [13]: 106%
viability, T/C [14]: 86%
viability, T/C [15]: 64.9%
viability, T/C [16]: 86.5%
viability, T/C [17]: 22.2%
viability, T/C [18]: 29.8%
viability, T/C [19]: 94%
viability, T/C [20]: 75.4%
viability, T/C [21]: 85.6%
viability, T/C [22]: 73.1%
viability, T/C [23]: 19.6%
viability, T/C [24]: 31.3%
viability, T/C [25]: 100%
viability, T/C [26]: 97.2%
viability, T/C [27]: 105%
viability, T/C [28]: 71%
viability, T/C [29]: 23.4%
viability, T/C [30]: 21.8%
viability, T/C [31]: 97.3%
viability, T/C [32]: 95.5%
viability, T/C [33]: 83.2%
viability, T/C [34]: 64.7%
viability, T/C [35]: 18.3%
viability, T/C [36]: 19.1%

O=C(NO)c1cnc(N2CCN(S(=O)(=O)c3ccc4ccccc4c3)CC2)nc1 + CN(C)c1ccc(Nc2c3ccc(NC(=O)CCN4CCCC4)cc3nc3cc(NC(=O)CCN4CCCC4)ccc23)cc1
IC50 (second compound 0.0316 µM): 518 nM
IC50 (second compound 0.1 µM): 512 nM
IC50 (second compound 0.316 µM): 536 nM
IC50 (second compound 1 µM): 508 nM
IC50 (second compound 3.16 µM): 578 nM
IC50 (second compound 10 µM): 464 nM
viability, T/C [1]: 107%
viability, T/C [2]: 128%
viability, T/C [3]: 86.8%
viability, T/C [4]: 2.18%
viability, T/C [5]: 0.16%
viability, T/C [6]: 0.17%
viability, T/C [7]: 110%
viability, T/C [8]: 93.4%
viability, T/C [9]: 83.6%
viability, T/C [10]: 3.12%
viability, T/C [11]: 0.11%
viability, T/C [12]: 0.12%
viability, T/C [13]: 111%
viability, T/C [14]: 101%
viability, T/C [15]: 90.6%
viability, T/C [16]: 2.03%
viability, T/C [17]: 0.1%
viability, T/C [18]: 0.11%
viability, T/C [19]: 103%
viability, T/C [20]: 120%
viability, T/C [21]: 84%
viability, T/C [22]: 2.22%
viability, T/C [23]: 0.08%
viability, T/C [24]: 0.11%
viability, T/C [25]: 113%
viability, T/C [26]: 92.1%
viability, T/C [27]: 106%
viability, T/C [28]: 1.28%
viability, T/C [29]: 0.14%
viability, T/C [30]: 0.13%
viability, T/C [31]: 93%
viability, T/C [32]: 87.8%
viability, T/C [33]: 73.1%
viability, T/C [34]: 3.72%
viability, T/C [35]: 0.18%
viability, T/C [36]: 0.17%
